According to PMC4585259 (Frontiers in Pharmacology, 2015):
Where two headings read alike, the source gives them in different places.

Target: T1, rNav1.2 sodium channels (Rattus norvegicus, UniProt P04775)
T1 construct: host or cells: HEK-293
Experiment: QPatch automated patch clamp, inhibition of sodium currents evoked by 5 Hz trains at three extracellular pH values
Format: cell-based
Conditions: for class of pH-dependence pattern (cluster analysis): Ward's method on 18 variables of affinity, reversibility, onset; for KD app, effect of acidic medium: pH = 6.0 vs neutral, increased KD app = decreased apparent affinity
Method: HEK-293 cells stably expressing rNav1.2 sodium channels were obtained from NeuroSearch (Ballerup, Denmark). The cells were grown in Dulbecco's modified Eagle medium supplemented with 10% FBS. Prior to use, the cells were trypsinized and subsequently kept in suspension in the QPatch cell storage facility in CHO-S- SFM-II medium.
Composition of the extracellular solution was: (in mM): 140 NaCl, 3 KCl, 1 CaCl2 1 MgCl2, 0.1 CdCl2, 20 TEA-Cl, 5 HEPES, adjusted to pH 7.3, Osmolality: 320 mOsm. […] Drugs were synthesized in Gedeon Richter Plc. […] The full list of drugs, with their three-letter codes, concentration, as well as their main therapeutic indication and main mechanism of action are shown in Table 1. […] The choice of concentrations used in this study may seem unusually high.
Data were sampled at a frequency of 25 kHz and filtered at 5 kHz. Junction potential was calculated to be −11 mV and was corrected for. […] Cells having membrane resistance < 500 MOhm, series resistance > 9 MOhm, or capacitance > 22 pF were excluded from analysis. The experimental protocol was also identical to the one used in our previous study: sodium channels were activated by 5 Hz trains of 5 depolarizations (−90 to −10 mV) repeated in every 20 s. In this study, however, the same control–drug-application–washout sequence was repeated four times: at neutral, acidic, alkalic, and again neutral pH. The peak amplitudes of sodium currents throughout the whole experiment are shown plotted against time in Figure 1 and Supplementary Figure 1.
Initial analysis, including subtraction of leak and capacitive artifacts, as well as peak detection were done in the QPatch software. […] All experiments were normalized to the amplitude of the current evoked by the first depolarization of the last train under control conditions. […] For all four drug applications in an experiment, apparent affinity, onset and offset time constants as well as reversibility values were calculated. […] (This method is equivalent to applying the Lineweaver-Burk plot method using a single concentration.) Reversibility values were calculated from control (c), inhibited (i), and wash-out (w) amplitudes as follows: Reversibility = (w-i)/(c-i). Reversibility values should not be regarded as experimental platform-independent properties of compounds. […] However, reversibility values are a valuable source of information regarding physicochemical differences between individual drugs, or between effects of the same drug under different extracellular pH conditions. Onset and offset time constants were determined by single exponential fitting to individual experiments. For neutral pH numerical data were given as the average of the data from the first and the last drug applications. Thin black lines on Figure 1 and Supplemental Figure 1 show the average of five fitted exponentials, (not the exponential fitted to the averaged normalized amplitudes). The numerical values of apparent affinity, onset and offset time constants and reversibility are shown in Table 2, and their relative position is illustrated in Figure 2. Affinity and time constant values were logarithmically transformed for statistics, therefore we show their geometric mean. For recovery data no transformation was done, and we show arithmetic mean values. Significance values were calculated using paired, two-tailed Student's t-test based on five pairs of apparent affinity (log transform), time constant (log transform), or reversibility values obtained from five individual experiments. Because of the large number of comparisons in this study, we accepted p < 0.01 as significant. Cluster analysis was done using Ward's minimum variance method, with Euclidean distance measure. Data were normalized by subtracting the mean (after logarithmic transformation in the case of apparent affinity and time constants), and dividing by the standard deviation.

[1] = pH 6.0, concentration (lidocaine 300 μM, memantine 30 μM)
[2] = pH 6.0, higher concentration: lidocaine 1000 μM, memantine 100 μM
[3] = pH 6.0, single concentration (lidocaine 300 μM, memantine 30 μM), geometric mean of 5, read-out: apparent affinity
[4] = pH 7.3, concentration (lidocaine 300 μM, memantine 30 μM)
[5] = pH 7.3, higher concentration: lidocaine 1000 μM, memantine 100 μM
[6] = pH 7.3, single concentration (lidocaine 300 μM, memantine 30 μM), geometric mean of 5, read-out: apparent affinity
[7] = pH 8.6, concentration (lidocaine 300 μM, memantine 30 μM)
[8] = pH 8.6, higher concentration: lidocaine 1000 μM, memantine 100 μM
[9] = pH 8.6, single concentration (lidocaine 300 μM, memantine 30 μM), geometric mean of 5, read-out: apparent affinity
[10] = pH=6.0, cc 100 mM, read-out: Apparent Affinity
[11] = pH=7.3, cc 100 mM, read-out: Apparent Affinity
[12] = pH=8.6, cc 100 mM, read-out: Apparent Affinity

T1 sequence (P04775 whole entry): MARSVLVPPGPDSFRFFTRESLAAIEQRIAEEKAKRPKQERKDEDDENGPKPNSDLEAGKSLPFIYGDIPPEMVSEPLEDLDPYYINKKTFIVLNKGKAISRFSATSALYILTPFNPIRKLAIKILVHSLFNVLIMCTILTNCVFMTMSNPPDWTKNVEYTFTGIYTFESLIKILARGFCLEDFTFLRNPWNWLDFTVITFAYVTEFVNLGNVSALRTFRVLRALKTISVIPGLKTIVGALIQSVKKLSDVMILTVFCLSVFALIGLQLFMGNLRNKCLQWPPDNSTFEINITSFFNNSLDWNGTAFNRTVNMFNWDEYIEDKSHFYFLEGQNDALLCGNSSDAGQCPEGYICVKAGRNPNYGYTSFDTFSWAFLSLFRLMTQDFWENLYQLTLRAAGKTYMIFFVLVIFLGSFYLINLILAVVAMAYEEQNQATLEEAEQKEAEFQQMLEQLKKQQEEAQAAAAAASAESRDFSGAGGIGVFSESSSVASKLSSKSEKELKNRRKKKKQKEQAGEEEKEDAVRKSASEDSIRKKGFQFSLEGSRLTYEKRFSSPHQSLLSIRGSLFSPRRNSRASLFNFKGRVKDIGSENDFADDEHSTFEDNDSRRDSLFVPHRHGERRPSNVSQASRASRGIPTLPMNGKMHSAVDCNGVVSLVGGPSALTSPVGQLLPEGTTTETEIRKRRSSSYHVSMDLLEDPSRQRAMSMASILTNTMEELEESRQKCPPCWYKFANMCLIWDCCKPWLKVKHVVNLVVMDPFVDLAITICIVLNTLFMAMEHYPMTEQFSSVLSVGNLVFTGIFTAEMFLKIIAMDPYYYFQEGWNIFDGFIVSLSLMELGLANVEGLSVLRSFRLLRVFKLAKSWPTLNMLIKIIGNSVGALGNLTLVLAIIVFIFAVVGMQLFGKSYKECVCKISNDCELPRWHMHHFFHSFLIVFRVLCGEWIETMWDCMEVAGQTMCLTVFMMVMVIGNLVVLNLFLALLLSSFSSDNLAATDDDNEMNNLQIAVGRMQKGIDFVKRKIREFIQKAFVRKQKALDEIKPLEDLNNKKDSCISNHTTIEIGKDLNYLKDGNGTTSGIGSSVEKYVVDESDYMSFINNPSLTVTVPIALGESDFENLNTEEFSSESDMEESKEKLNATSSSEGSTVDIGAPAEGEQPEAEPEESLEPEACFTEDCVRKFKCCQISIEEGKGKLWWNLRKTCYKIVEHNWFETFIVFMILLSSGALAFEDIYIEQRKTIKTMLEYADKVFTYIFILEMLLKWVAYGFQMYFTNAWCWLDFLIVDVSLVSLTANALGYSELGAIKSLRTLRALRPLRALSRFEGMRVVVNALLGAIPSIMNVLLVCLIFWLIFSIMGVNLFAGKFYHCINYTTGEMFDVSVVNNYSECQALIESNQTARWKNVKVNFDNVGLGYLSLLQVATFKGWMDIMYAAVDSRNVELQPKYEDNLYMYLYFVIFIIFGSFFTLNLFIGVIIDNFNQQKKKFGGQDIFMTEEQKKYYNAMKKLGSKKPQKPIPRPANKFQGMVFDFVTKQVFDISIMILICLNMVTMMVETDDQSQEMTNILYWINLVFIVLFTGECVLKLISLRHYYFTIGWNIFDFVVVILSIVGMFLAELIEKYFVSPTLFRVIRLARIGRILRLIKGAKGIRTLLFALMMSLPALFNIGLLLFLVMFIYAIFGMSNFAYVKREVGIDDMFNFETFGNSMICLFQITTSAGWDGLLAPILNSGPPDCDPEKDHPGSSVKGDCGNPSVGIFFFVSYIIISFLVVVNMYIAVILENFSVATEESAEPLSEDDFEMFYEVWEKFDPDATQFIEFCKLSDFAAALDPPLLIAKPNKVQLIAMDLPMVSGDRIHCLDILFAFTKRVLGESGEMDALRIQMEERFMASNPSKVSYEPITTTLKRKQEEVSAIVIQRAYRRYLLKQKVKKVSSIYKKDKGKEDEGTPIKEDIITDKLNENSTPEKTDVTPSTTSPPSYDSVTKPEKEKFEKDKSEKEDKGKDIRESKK

SMILES: CC12CC3CC(C)(C1)CC(N)(C3)C2 [memantine]
- class of pH-dependence pattern (cluster analysis): Class F
- Ratio Reversibility (pH 6.0/7.3, cc 30 mM): 0.946
- Ratio Tau Offset (pH 6.0/7.3, cc 30 mM): 1.093
- Ratio Tau Onset (pH 6.0/7.3, cc 30 mM): 0.877
- log Ratio App Aff (pH 6.0/7.3, cc 30 mM): 0.255
- Ratio Reversibility (pH 6.0/7.3, cc 100 mM): 0.974
- Ratio Tau Offset (pH 6.0/7.3, cc 100 mM): 0.656
- Ratio Tau Onset (pH 6.0/7.3, cc 100 mM): 1.032
- log Ratio App Aff (pH 6.0/7.3, cc 100 mM): 0.109
- Ratio Reversibility (pH 6.0/8.6, cc 30 mM): 1.464
- Ratio Tau Offset (pH 6.0/8.6, cc 30 mM): 1.000
- Ratio Tau Onset (pH 6.0/8.6, cc 30 mM): 0.688
- log Ratio App Aff (pH 6.0/8.6, cc 30 mM): 0.915
- Ratio Reversibility (pH 6.0/8.6, cc 100 mM): 1.593
- Ratio Tau Offset (pH 6.0/8.6, cc 100 mM): 0.550
- Ratio Tau Onset (pH 6.0/8.6, cc 100 mM): 0.842
- log Ratio App Aff (pH 6.0/8.6, cc 100 mM): 0.840
- τoffset [1]: 23.60 s
- τonset [1]: 12.80 s
- τoffset [2]: 12.20 s
- τonset [2]: 12.80 s
- Kd (pH 6.0, higher concentration: lidocaine 1000 μM, memantine 100 μM, read-out: apparent affinity): 303 µM
- Kd [3]: 394 µM
- Ratio Reversibility (pH 7.3/8.6, cc 30 mM): 1.547
- Ratio Tau Offset (pH 7.3/8.6, cc 30 mM): 0.915
- Ratio Tau Onset (pH 7.3/8.6, cc 30 mM): 0.785
- log Ratio App Aff (pH 7.3/8.6, cc 30 mM): 0.661
- Ratio Reversibility (pH 7.3/8.6, cc 100 mM): 1.636
- Ratio Tau Offset (pH 7.3/8.6, cc 100 mM): 0.838
- Ratio Tau Onset (pH 7.3/8.6, cc 100 mM): 0.816
- log Ratio App Aff (pH 7.3/8.6, cc 100 mM): 0.731
- τoffset [4]: 21.60 s
- τonset [4]: 14.60 s
- τoffset [5]: 18.60 s
- τonset [5]: 12.40 s
- Kd (pH 7.3, higher concentration: lidocaine 1000 μM, memantine 100 μM, read-out: apparent affinity): 236 µM
- Kd [6]: 219 µM
- τoffset [7]: 23.60 s
- τonset [7]: 18.60 s
- τoffset [8]: 22.20 s
- τonset [8]: 15.20 s
- Kd (pH 8.6, higher concentration: lidocaine 1000 μM, memantine 100 μM, read-out: apparent affinity): 43.8 µM
- Kd [9]: 47.9 µM
- KD app, effect of acidic medium: MEM,MEX,TOL↑
- Reversibility (pH=6.0, cc 30 mM): 0.82
- Kd (pH=6.0, cc 30 mM, read-out: Apparent Affinity): 394 µM
- Reversibility (pH=6.0, cc 100 mM): 0.89
- Kd [10]: 303 µM
- Reversibility (pH=7.3, cc 30 mM): 0.86
- Kd (pH=7.3, cc 30 mM, read-out: Apparent Affinity): 219 µM
- Reversibility (pH=7.3, cc 100 mM): 0.92
- Kd [11]: 236 µM
- Reversibility (pH=8.6, cc 30 mM): 0.56
- Kd (pH=8.6, cc 30 mM, read-out: Apparent Affinity): 47.9 µM
- Reversibility (pH=8.6, cc 100 mM): 0.56
- Kd [12]: 43.8 µM

SMILES: Cc1cccc(C)c1OCC(C)N (stereo not shown) [mexiletine]
- class of pH-dependence pattern (cluster analysis): Class F
- effect of alkalic pH on onset/offset kinetics (in words): acceleration of onset
- Ratio Reversibility (pH 6.0/7.3, cc 300 mM): 0.987
- Ratio Tau Offset (pH 6.0/7.3, cc 300 mM): 1.071
- Ratio Tau Onset (pH 6.0/7.3, cc 300 mM): 1.162
- log Ratio App Aff (pH 6.0/7.3, cc 300 mM): 0.268
- Ratio Reversibility (pH 6.0/8.6, cc 300 mM): 1.300
- Ratio Tau Offset (pH 6.0/8.6, cc 300 mM): 0.938
- Ratio Tau Onset (pH 6.0/8.6, cc 300 mM): 1.411
- log Ratio App Aff (pH 6.0/8.6, cc 300 mM): 0.786
- τoffset [1]: 21.00 s
- τonset [1]: 15.80 s
- Kd [3]: 350 µM
- Ratio Reversibility (pH 7.3/8.6, cc 300 mM): 1.317
- Ratio Tau Offset (pH 7.3/8.6, cc 300 mM): 0.875
- Ratio Tau Onset (pH 7.3/8.6, cc 300 mM): 1.214
- log Ratio App Aff (pH 7.3/8.6, cc 300 mM): 0.518
- τoffset [4]: 19.60 s
- τonset [4]: 13.60 s
- Kd [6]: 189 µM
- τoffset [7]: 22.40 s
- τonset [7]: 11.20 s
- Kd [9]: 57.3 µM
- KD app, effect of acidic medium: MEM,MEX,TOL↑
- Reversibility (pH=6.0, cc 300 mM): 0.78
- Kd (pH=6.0, cc 300 mM, read-out: Apparent Affinity): 350 µM
- Reversibility (pH=7.3, cc 300 mM): 0.79
- Kd (pH=7.3, cc 300 mM, read-out: Apparent Affinity): 189 µM
- Reversibility (pH=8.6, cc 300 mM): 0.60
- Kd (pH=8.6, cc 300 mM, read-out: Apparent Affinity): 57.3 µM

SMILES: CN1CCN2c3ncccc3Cc3ccccc3C2C1 (stereo not shown) [mirtazapine]
- class of pH-dependence pattern (cluster analysis): Class D
- Ratio Reversibility (pH 6.0/7.3, cc 100 mM): 0.272
- Ratio Tau Offset (pH 6.0/7.3, cc 100 mM): 1.108
- Ratio Tau Onset (pH 6.0/7.3, cc 100 mM): 1.386
- log Ratio App Aff (pH 6.0/7.3, cc 100 mM): 0.353
- Ratio Reversibility (pH 6.0/8.6, cc 100 mM): 0.495
- Ratio Tau Offset (pH 6.0/8.6, cc 100 mM): 0.960
- Ratio Tau Onset (pH 6.0/8.6, cc 100 mM): 1.173
- log Ratio App Aff (pH 6.0/8.6, cc 100 mM): 0.925
- τoffset [1]: 14.40 s
- τonset [1]: 12.20 s
- Kd [3]: 317 µM
- Ratio Reversibility (pH 7.3/8.6, cc 100 mM): 1.821
- Ratio Tau Offset (pH 7.3/8.6, cc 100 mM): 0.867
- Ratio Tau Onset (pH 7.3/8.6, cc 100 mM): 0.846
- log Ratio App Aff (pH 7.3/8.6, cc 100 mM): 0.572
- τoffset [4]: 13.00 s
- τonset [4]: 8.80 s
- Kd [6]: 141 µM
- τoffset [7]: 15.00 s
- τonset [7]: 10.40 s
- Kd [9]: 37.7 µM
- effect of acidic pH on recovery (pH = 6.0 vs 7.3, in words): decreased recovery
- Reversibility (pH=6.0, cc 100 mM): 0.26
- Kd [10]: 317 µM
- Reversibility (pH=7.3, cc 100 mM): 0.95
- Kd [11]: 141 µM
- Reversibility (pH=8.6, cc 100 mM): 0.52
- Kd [12]: 37.7 µM
